According to article PMC10979003, “Development and crystal structures of a potent second-generation dual degrader of BCL-2 and BCL-xL” (Nature Communications, 2024):

Tests used:
BCL-2 = target: T1, BCL-2 (Homo sapiens, UniProt P10415); assay: Immunoblot degradation of BCL-2 in Jurkat cells; format: cell-based; details: for DC50: 16 h treatment, immunoblot
T1 construct: endogenous in cells; host or cells: Jurkat (ATCC TIB-152)
Description: The data are presented as mean ± s.d. from three replicate cell cultures in a representative experiment for Jurkat cells. h Left, WH244 induces polyubiquitination of WT, K22R BCL-2 and to some extent K17R but not K17/22R BCL-2 in 293T cells. 293T cells were co-transfected as indicated with Flag-BCL−2 WT or mutants and HA-tagged ubiquitin (HA-Ub) plasmids. After 36 h, cells were pretreated with MG132 (10 µM) for 2 h and then treated with or without WH244 (1 μM) for 5 h. The Flag-tagged proteins were immunoprecipitated (IP) and immunoblotted with HA or Flag antibody. Right, The input blot for this assay. Data are a representative of two independent experiments. Source data are provided as Source Data file.
Cells were collected, washed once with ice-cold phosphate-buffered saline, pH 7.2 (PBS, cat. no. 20012027; Thermo Fisher Scientific) and lysed in RIPA lysis buffer (Cat. No. BP-115DG, Boston Bio Products, Ashland, MA, USA) supplemented with protease and phosphatase inhibitor cocktails (Cat. No. PPC1010, Sigma-Aldrich, St. Louis, MO, USA) through sonication. The samples were centrifuged at 15,000 × g for 5 min and the supernatants were transferred into a new tube. The protein concentration in the supernatants was determined using the Pierce BCA protein Assay kit (cat. no. 23225, Thermo Fisher Scientific). The protein concentration was normalized, and the samples were reduced in 4× Laemmli’s SDS-sample buffer (cat. no. BP-110R, Boston Bio Products) and denatured at 95 °C for 5 min. An equal amount of protein samples (20–40 μg per lane) were resolved using precast 4–20% Tris-glycine gels (Mini-PROTEAN TGX, cat. no. 456–1094, Bio-Rad), and resolved proteins were transferred onto 0.2-μm pore size polyvinylidene difluoride (PVDF) blotting membranes (cat. no. LC2002, Thermo Fisher Scientific) using mini trans-blot electrophoretic transfer cell (Bio-Rad). The membranes were blocked with non-fat dry milk (5% wt/vol) in 1×Tris- buffered saline-Tween-20 (TBST) for 1 h at room temperature, and were subsequently probed with primary antibodies at a pre-determined optimal concentration in non-fat dry milk (5% wt/vol in TBST) overnight at 4 °C. The membranes were washed three times (15 min each) in TBST and then incubated with horse radish peroxidase (HRP)-conjugated secondary antibodies for 1 h at room temperature. Following sufficient washing with TBST, the membranes were exposed with ECL Western Blotting Substrate (Bio-Rad), and the signal was detected using the ChemiDoc MP Imaging System (Bio-Rad) and quantified using the ImageJ (v1.53a) software from NIH. Antibodies were purchased from Cell Signaling Technologies (CST) and the dilutions are as follows: BCL-xL (Cat. No. 2762S, 1:1000) and BCL-2 (Cat. No. 2870S, 1:1000). β-actin antibody was purchased from MP Biomedicals (Cat. No. 8691001, 1:20,000).

HiBiT-BCL-xL = target: T2, HiBiT-BCL-xL (Homo sapiens, UniProt Q07817); assay: HiBiT degradation assay, HiBiT knock-in BCL-xL HeLa cells; format: cell-based
T2 construct: endogenous in cells; host or cells: HeLa (ATCC CCL-2), CRISPR-Cas9 HiBiT knock-in clone
Description: The Alt-R CRISPR RNA (crRNA):Alt-R trans-activating crRNA (tracrRNA) duplexes for targeting BCL-xL or BCL-2 were prepared by mixing 0.5 nmol crRNA and 0.5 nmol tracrRNA in 25 μL of Nuclease-Free Duplex Buffer (Integrated DNA Technologies, IDT) by incubation at 95 °C for 5 min and cooling to RT. Single-stranded ultramer DNA oligonucleotides (ssODN) (IDT) were used as the homology directed repair (HDR) donor templates. The sequences of gRNAs and ssODN templates are listed in Supplementary Table 2. Ribonucleoprotein (RNP) complexes with recombinant Streptococcus pyogenes Cas9 protein (IDT) and crRNA:tracrRNA duplex were assembled by incubating 100 pmol of Cas9 and 120 pmol of gRNA for 10–20 min at room temperature. HeLa (2 × 10^5) cells were resuspended in 10 μL of Neon^TM transfection system buffer R from the Neon^TM transfection system 10 mL kit (Thermo Fisher), and the RNP complex along with 100 pmol ssODN template were electroporated into HeLa cells with the Neon^TM transfection system (Thermo Fisher). After electroporation, HeLa cells were transferred to a 12-well plate for culturing. Edited pooled cells were analyzed for HiBiT insertion by assaying for luminescence using Nano-Glo® HiBiT lytic detection system (Cat #N3040, Promega) in a Biotek’s Synergy Neo2 multimode plate reader (Biotek) 48–72 h after electroporation and single clones were selected by serial dilution.
HeLa HiBiT-BCL-xL and HeLa HiBiT-BCL-2 cells (2 × 10^4/well in 80 μL DMEM) were seeded into white 96-well tissue culture plates and incubated overnight at 37 °C, 5% CO2. For dose curve testing, the following day, serial diluted compounds were added into the medium and then plates were incubated at 37 °C, 5% CO2, for 6 h. For time course testing, in the following day, compounds with indicated concentrations were added into the medium at different time points. After treatment, the luminescence signals were measured using Nano-Glo® HiBiT lytic detection system (Cat #N3040, Promega) in a Biotek’s Synergy Neo2 multimode plate reader (Biotek).

T2 sequence (Q07817 whole entry): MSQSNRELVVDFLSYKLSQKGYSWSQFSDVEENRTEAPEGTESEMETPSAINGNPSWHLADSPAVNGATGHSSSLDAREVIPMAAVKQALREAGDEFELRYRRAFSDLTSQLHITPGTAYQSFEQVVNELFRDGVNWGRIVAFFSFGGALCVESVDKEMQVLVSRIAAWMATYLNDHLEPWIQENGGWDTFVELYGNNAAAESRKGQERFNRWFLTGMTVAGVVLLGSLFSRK
T1 sequence (P10415 whole entry): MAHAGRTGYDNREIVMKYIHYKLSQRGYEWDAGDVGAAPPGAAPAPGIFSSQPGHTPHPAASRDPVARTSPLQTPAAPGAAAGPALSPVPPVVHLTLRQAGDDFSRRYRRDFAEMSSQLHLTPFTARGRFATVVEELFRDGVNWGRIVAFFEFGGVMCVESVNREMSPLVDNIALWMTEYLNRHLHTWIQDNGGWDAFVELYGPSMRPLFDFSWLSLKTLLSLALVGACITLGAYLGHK

SMILES | DC50 (BCL-2; Jurkat cells) | Time to degrade 50% of BCL-xL (HiBiT-BCL-xL; 10 nM compound) | Time to degrade 50% of BCL-xL (HiBiT-BCL-xL; 100 nM compound) | Earliest time at which BCL-2 degradation is seen (BCL-2; 0.1 μM WH244, Jurkat cells) | Time to nearly complete degradation of BCL-2 (BCL-2; 0.1 μM WH244, Jurkat cells) | Time for BCL-2 level to recover to pretreatment level after removal of degrader (BCL-2; 0.1 μM WH244 for 16 h, then fresh medium, Jurkat cells) | DC50 fold better than 753b (BCL-2) (BCL-2; Jurkat cells, 16 h) | Potency for inducing degradation of BCL-xL (comparison) (HiBiT-BCL-xL; 6 h treatment)
Cc1ncsc1-c1ccc(C(C)NC(=O)C2CC(O)CN2C(=O)C(NC(=O)CCCCCCC(=O)N2CCN(CC3(C)CCC(c4ccc(Cl)cc4)=C(CN4CCN(c5ccc(C(=O)NS(=O)(=O)c6ccc(NC(CCN7CCOCC7)CSc7ccccc7)c(S(=O)(=O)C(F)(F)F)c6)cc5)CC4)C3)CC2)C(C)(C)C)cc1 (centres unmarked) [753b] | 50 nM | > 480 min | ~ 84 min | – | – | – | – | –
Cc1ncsc1-c1ccc([C@H](C)NC(=O)[C@@H]2C[C@@H](O)CN2C(=O)[C@@H](NC(=O)CN2CCN(CC(=O)N3CCN(C[C@]4(C)CCC(c5ccc(Cl)cc5)=C(CN5CCN(c6ccc(C(=O)NS(=O)(=O)c7ccc(N[C@H](CCN8C[C@@H]9C[C@H]8CO9)CSc8ccccc8)c(S(=O)(=O)C(F)(F)F)c7)cc6)CC5)C4)CC3)CC2)C(C)(C)C)cc1 [WH244] | 7.4 nM | ~ 219 min | ~ 45 min | 1 h | 6 h | 24 to 48 h | ~6.8 fold | more potent than 753b
